In US11000454B2, “Dental composition” (DENTSPLY SIRONA inc., priority 2016, dated 2021):

Legend:
[1] = Refractive index (RI) measured at 20° C.; format: physicochemical
Experimental: (§1) (nD^20) and viscosity n measured at 23° C. (η23° C.) for compounds of formula (I) according to the invention denoted as (Ib) and (Ic), and comparative compounds (C1), (C2) and (C3). Compound (Ib) is N,N′-bisacryloyl-N,N′-bisallyl-[…], and compound (Ic) is N,N′-bisacryloyl-N,N′-bispropyl-1,4-but-2-endiamine. Comparative compound (C1) is N,N′-bisacetyl-N,N′-bisallyl-1,4-but-2-endiamine, (C2) is N,N′-bisacryloyl-N,N′-bisallyl-1,4-butandiamine, and C(3) is N,N′-bisacryloyl-N,N′-bispropyl-1,4-butandiamine. In FIG. 1, RI is depicted by dark grey bars, and the viscosity η by light grey hatched bars. For comparative compound (C1), no viscosity η was determined (indicated by “*”), since this compound is a solid.

[2] = Solubility of the compounds in tested solvents; format: physicochemical; parameters: key to solubility: “−” means NO solubility; “++” means VERY GOOD solubility
[3] = Viscosity measured at 23° C.; format: physicochemical; details: viscosity at 23° C.
Experimental: as §1

[4] = Discoloration of the dental composition upon storage; format: physicochemical; details: storage at 50° C. for 30 days
From the text: Discoloration upon storage and/or during photocuring may be determined according to ISO 7491:2000(en).

[5] = refractive index, preparative examples
[6] = refractive index at 20° C., tables

Structure (SMILES) | melting point [°C] | nD^20 [1, 5] | solubility ([2]; EtOH) | solubility ([2]; acetone) | solubility ([2]; iPrOH) | solubility ([2]; methacrylic acid) | solubility ([2]; water) | η23° C. ([3]; tables) [mPa · s] | nD^20 [1, 6] | solubility in alcohols ([2]; alcohols like ethanol or isopropanol) | solubility ([2]; water/alcohol) | η23° C. ([3]; preparative examples) [Pa*s] | discoloration of the dental composition upon storage [4]
C=CCN(C/C=C/CN(CC=C)C(C)=O)C(C)=O [(C1), N,N′-Bisacetyl-N,N′-bisallyl-1,4-but-2-endiamine] | 32 | 1.505 | ++ | ++ | ++ | ++ | − |  |  |  |  |  | 
C=CCN(CCCCN(CC=C)C(=O)C=C)C(=O)C=C [(C2), N,N′-Bisacryloyl-N,N′-bisallyl-1,4-butandiamine] |  | 1.515 | − | ++ | − | ++ | − | 382.0 | 1.5150 | not soluble | − |  | 
C=CC(=O)N(CCC)CCCCN(CCC)C(=O)C=C [(C3), N,N′-Bisacryloyl-N,N′-bispropyl-1,4-butandiamine] |  | 1.515 | ++ | ++ | ++ | ++ | − | 485.5 | 1.5150 |  |  | 486±1 | 
C=CCN(C/C=C/CN(CC=C)C(=O)C=C)C(=O)C=C [(Ia)] |  |  | ++ | ++***) | ++ | ++ | −**^) | 338.0 | 1.5290 |  |  |  | 

Second part, the compound after the results:

melting point [°C] | nD^20 [1, 5] | solubility ([2]; EtOH) | solubility ([2]; acetone) | solubility ([2]; iPrOH) | solubility ([2]; methacrylic acid) | solubility ([2]; water) | η23° C. ([3]; tables) [mPa · s] | nD^20 [1, 6] | solubility in alcohols ([2]; alcohols like ethanol or isopropanol) | solubility ([2]; water/alcohol) | η23° C. ([3]; preparative examples) [Pa*s] | discoloration of the dental composition upon storage [4] | Structure (SMILES)
 | 1.5095 | ++ | ++ | ++ | ++ | − | 427.5 | 1.5095 |  |  | 428±3 |  | C=CC(=O)N(C/C=C/CN(CCC)C(=O)C=C)CCC [(Ic), N,N′-Bisacryloyl-N,N′-bispropyl-1,4-but-2-endiamine]
 | 1.526 | ++ | ++ | ++ | ++ | − | 409.0 | 1.5260 |  |  |  |  | C=CCN(C/C=C/C(C)N(CC=C)C(=O)C=C)C(=O)C=C (stereo not drawn) [Compound (Ib)]
 |  |  |  |  |  |  |  |  |  |  |  | no or almost no discoloration | CC(C)(C)c1cc(O)c(C(C)(C)C)cc1O [DTBHQ]
